Three compounds from US7407934B2, “Methods for regulating postprandial blood glucose” (Amylin Pharmaceuticals, Inc., priority 1993, dated 2008) can be followed below.

The nature of series [1]: Post-prandial plasma glucose after IV bolus or IV infusion in insulin-dependent diabetic subjects (Example 2). Format: in vivo, human. The text has this:
(§1) Subjects in each dose group underwent a two period crossover to examine intravenous (IV) bolus versus IV infusion of drug. Each period consisted of a three-day confinement to the study unit. On each occasion, the initial day of confinement was allowed for acclimatization to the study unit. The second and third days constituted an imbedded crossover of placebo versus active medication. […] An imbedded cross-over design for the administration of drug and placebo on Days 2 and 3 of this admission was employed in a manner similar to that used during the first admission. The six subjects assigned to the placebo group received placebo on each of the study days. On study days, intravenous catheters were inserted at least 30 minutes prior to the start of the study. 15 minutes before dosing, the subjects took their usual insulin dose via subcutaneous injection. […] The infusion rate was designed to administer the assigned amount of drug over the two hour period. Thirty minutes later, the subjects ingested their normal breakfasts. Blood samples were taken between −30 and 300 minutes for the measurement of plasma.

Series [2] can be described thus: 14-day study, Sustacal meal tolerance test glucose (Example 4). Format: in vivo, human. Particulars: 14 days. On the procedure: 72 subjects with insulin-dependent diabetes mellitus participated in a 14-day clinical trial. Each subject was randomly assigned to one of four treatment groups, receiving placebo, 30, 100 or 300 μg tripro-amylin by subcutaneous injection three times a day for 14 days. The subjects also remained on their usual insulin regimen throughout the study. On days 1 (baseline), 7 and 14, standardized meal tolerance tests were performed.
For the standardized meal tolerance tests, subjects were given a Sustacal® liquid meal (360 ml containing 360 calories) at 0800 h. Subjects abstained from food or drink (except for water) from 2200 h the night before. […] For a baseline test, on day 1, tripro-amylin (or placebo) was not administered until after completion of the test. On day 7 and 14, tripro-amylin (or placebo) was administered in a separate injection at the same time as the usual morning insulin dose. Samples for determination of serum glucose levels were drawn at −30, 0, 30, 60, 120 and 180 minutes relative to the start of the challenge. Time zero was considered to be the time when the subject began to drink the Sustacal® meal.

On the set-up of series [3]: species or system human. The note with it: in vivo, iv.
Description: as §1

Series [4] is described as follows: Plasma glucose after Sustacal meal or IV glucose load during AC-0137 infusion (Example 3). Format: in vivo, human. The text has this:
Twenty-seven subjects with insulin-dependent diabetes mellitus were allocated into a combination of two dose level groups and two types of tolerance tests.
Subjects remained in the clinic for three days. On the first day of confinement, the subjects were acclimatized to the clinic. […] In addition, subjects received either a Sustacal® meal or iv glucose tolerance test, as determined by the group assignment.
During the first day, the subject's usual insulin and caloric intake was stabilized and each subject then followed this insulin and dietary regimen throughout confinement in the clinic.
at approximately, 0700 h (T=0), the continuous infusion of study medication was initiated. At T=30 minutes, the subjects administered their usual AM dose of insulin. […] The type of tolerance test was determined according to the randomization schedule. […] Study drug administration was discontinued at t=300 minutes.
On the morning of the third day, iv lines were again placed in a similar manner as on Day 2. Subjects administered their usual pre-breakfast dose of insulin as on Day 2. […] An identical standardized Sustacal® meal tolerance or iv glucose load as they received on Day 2 was again administered. At the end of the sampling period the iv lines were withdrawn.

Series [5] is described as follows: Uptake of labelled oral glucose load in corpulent LA/N rats (Example 6). The format is in vivo, rat. On the procedure:
Uptake of an ingested glucose load was measured in 11 conscious 24-hr fasted corpulent (500-600 g) LA/N rats on 2 occasions, 14 days apart.

Series [6] can be described thus: Oral glucose tolerance test in dogs during amylin infusion (Example 1). The format is in vivo, dog. On the procedure:
Mongrel dogs (9 males, 12-17 kg wt. range) were used for this study. All animals were fasted overnight prior to each study. Each animal served as its own control for all protocols. Animals were equilibrated for 30-60 minutes prior to the start of each protocol.
25% glucose (1 gm/kg) was administered by mouth at t=0 minutes. […] Samples for insulin, glucose and lactate were obtained at 15 minutes intervals from t=−45 to t=180 minutes.

For the compound `CC[C@H](C)[C@H](NC(=O)[C@@H]1CCCN1C(=O)CNC(=O)[C@H](Cc1ccccc1)NC(=O)[C@H](CC(N)=O)NC(=O)[C@H](CC(N)=O)NC(=O)[C@H](CO)NC(=O)[C@H](CO)NC(=O)[C@H](Cc1c[nH]cn1)NC(=O)[C@@H](NC(=O)[C@H](CC(C)C)NC(=O)[C@H](Cc1ccccc1)NC(=O)[C@H](CC(N)=O)NC(=O)[C@H](C)NC(=O)[C@H](CC(C)C)NC(=O)[C@H](CCCNC(=N)N)NC(=O)[C@H](CCC(N)=O)NC(=O)[C@@H](NC(=O)[C@H](C)NC(=O)[C@@H]1CSSC[C@H](NC(=O)[C@@H](N)CCCCN)C(=O)N[C@@H](CC(N)=O)C(=O)N[C@@H]([C@@H](C)O)C(=O)N[C@@H](C)C(=O)N[C@@H]([C@@H](C)O)C(=O)N1)[C@@H](C)O)C(C)C)C(=O)N[C@@H](CC(C)C)C(=O)N1CCC[C@H]1C(=O)N1CCC[C@H]1C(=O)N[C@H](C(=O)N[C@@H](CC(N)=O)C(=O)N[C@H](C(=O)NCC(=O)N[C@@H](CO)C(=O)N[C@@H](CC(N)=O)C(=O)N[C@H](C(=O)N[C@@H](Cc1ccc(O)cc1)C(N)=O)[C@@H](C)O)C(C)C)[C@@H](C)O` [^25,28,29Pro-h-Amylin], in series [1] (IV bolus 30 μg), the Post-prandial glucose levels entry is “no apparent change in glucose levels”. Besides, the “Post-prandial rise in glucose” value in series [1] (IV bolus 100 μg) is “clearly delayed and less pronounced”; in series [1] (IV bolus 300 μg), “essentially eliminated”; in series [1] (IV infusion 15 μg/hr) it was “highly suggestive of an effect”; in series [1] (IV infusion 50 and 150 μg/hr), “striking”. Moreover, the Post-prandial hyperglycemia result in series [1] (continuous 2-hour IV infusion, 15-150 μg/hr) is given as “dose-dependent reduction in post-prandial hyperglycemia”. Further, the “Post-meal glucose: Mean of changes in AUC” value in series [2] (30 micrograms s.c. 3 times daily) is listed as −6,645 mb/dl * min; in series [2] (100 micrograms s.c. 3 times daily), −6,412 mb/dl * min; in series [2] (300 micrograms s.c. 3 times daily) it was −7,316 mb/dl * min. Further, in series [3], the “Disappearance of drug from plasma compartment” value was “apparent first-order kinetics”. Further, the “Plasma glucose levels vs placebo” value in series [4] (IV glucose load 300 mg/kg, 50 μg/hr IV infusion) is “not significantly different from placebo-treated subjects”; in series [4] (Sustacal meal, 25 μg/hr or 50 μg/hr IV infusion), “reduced”.
For “ac-^10N^32Y8-32-salmon calcitonin [AC-0187]”, the “Acceleration of appearance of glucose-derived tritium in plasma” value in series [5] (3 μg s.c. 3 min before gavage, 15 minutes post-gavage (P<0.02)) is reported as 48%; in series [5] (3 μg s.c., 30 minutes post-gavage (P<0.001)), 45%. The Plasma glucose in series [5] (15 minutes after gavage with 0.5 g glucose, rise from 5.89±0.17) is 8.33 ± 0.28 mM; in series [5] (60 minutes after glucose gavage) it was 6.89 ± 0.28 mM.
As for “acetyl-^11,18Arg, ^30Arg, ^32Tyr-^9-32calcitonin (salmon) [AC-0253]”, in series [6] (AC-0253 alone), the “Changes in plasma glucose, antagonist alone” value is “no effect”. In addition, in series [6] (AC-0253 up to 1500 pmol/kg/min with amylin 50 pmol/kg/min), the “Reversal of amylin-induced changes in plasma glucose” value was “does not completely reverse the effects of amylin”. Also, the “Effects on plasma lactate” value in series [6] (oral glucose load) is listed as “unremarkable”.
